{"source": "patent US20040028656A1", "about": "“Survival of neurons” (University of South Florida, a non-profit institution, priority 1998, published 2004)", "test_system": "hNT neurons", "test": "Soma size and neurite outgrowth of TH+ hNT cells (image analysis)", "format": "cell-based, human", "conditions": "for soma sizes versus control: 5DIV NaCl or KCl-treated cultures; for neurite outgrowth versus control: NaCl and KCl-treated 5DIV", "method": "The same series of slides immunostained for TH were employed to measure the soma size (μm^2) and neurite outgrowth (μm) of appropriately 50 TH+ cells per representative culture experiment using a computerized image analysis program (Image-Pro Plus, Media Cybernetics, Inc., Silver Springs, Md.) at 20× objective. The results in the morphological assessment study are reported as mean ±SEM and were analyzed using Student's t-test."}
{"compound": "[Cl-].[K+]", "note": "[KCl]", "values": [{"measurement": "soma sizes versus control", "result": "not significantly different from control"}, {"measurement": "neurite outgrowth versus control", "result": "did not significantly differ from control values"}]}
{"compound": "[Cl-].[Na+]", "note": "[NaCl]", "values": [{"measurement": "soma sizes versus control", "result": "not significantly different from control"}, {"measurement": "neurite outgrowth versus control", "result": "did not significantly differ from control values"}]}
